In series [1] the test system is SW1990. The experiment in a line: Inhibition of colony formation in human SW1990 cells at 0.5 uM after 14 days in presence of 1.5 uM Olaparib by crystal violet staining based microscopic analysis. In kind it is functional, cell-based. Particulars: time 14.0 day.
Series [2] deals with Mus musculus. The experiment in a line: In vivo inhibition of PARP1 expression in human […] cells xenografted in BALB/c mouse assessed as reversal of Olaparib-induced PARP1 accumulation at 15 mg/kg, ip administered for 28 consecutive days in presence of 45 mg/kg Olaparib by immunohistochemical analysis. In kind it is functional, organism-based. To be noted: time 28.0 day. On the technique in general: In xenograft studies the graft and the host belong to different species.

The test system of series [3] is Mus musculus. The experiment in a line: In vivo inhibition of BRD4 expression in human SW1900 cells xenografted in BALB/c mouse assessed as reversal of Olaparib-induced BRD4 accumulation at 15 mg/kg, ip administered for 28 consecutive days in presence of 45 mg/kg Olaparib by Q-PCR analysis. It is filed as functional, organism-based. Particulars: time 28.0 day.
Series [4] has as its system SW1990. The experiment in a line: Induction of apoptosis in human SW1990 cells assessed as late apoptotic cells at 4 uM after 4 days by Annexin V-FITC and propidium iodide staining based flow cytometry (reference value: 6.22%). In kind it is functional. To be noted: time 4 day. For orientation: Flow cytometry measures light scatter and fluorescence of single cells or particles in a stream.

Series [5] relates to SW1990. The experiment in a line: Induction of cell cycle arrest in human SW1990 cells assessed as accumulation of cells at G0/G1 phase at 4 uM incubated for 4 days by propidium iodide staining based flow cytometry (reference value: 64.79%). In kind it is functional. Particulars: time 4 day.
Series [6] concerns SW1990. Description: Induction of cell cycle arrest in human SW1990 cells assessed as accumulation of cells at G2/M phase at 4 uM incubated for 4 days by propidium iodide staining based flow cytometry (reference value: 5.89%). It is filed as functional. To be noted: time 4 day.
Series [7] deals with SW1990. The experiment in a line: Induction of DNA damage in human SW1990 cells assessed as increase in gammaH2AX at 1 uM incubated for 4 days in presence of Olaparib by immunofluorescence assay. It is filed as functional, cell-based. To be noted: time 4.0 day.
Series [8] deals with SW1990. The experiment in a line: Inhibition of homologous recombinant repair in human SW1990 cells assessed as reduction in Olaparib-induced BRCA1 expression at 1 uM after 4 days in presence of Olaparib by Western blot analysis. In kind it is functional, cell-based. To be noted: time 4.0 day. On the technique in general: A western blot detects proteins with antibodies after separation by electrophoresis.

Series [9] has as its system SW1990. Description: Inhibition of homologous recombinant repair in human SW1990 cells assessed as increase in […] expression at 4 uM after 4 days by Western blot analysis. It is filed as functional, cell-based. To be noted: time 4.0 day.
Series [10] concerns the target T1, Bromodomain testis-specific protein (Homo sapiens, UniProt Q58F21). The experiment in a line: Inhibition of recombinant BRDT BD1 (unknown origin) incubated for 120 mins by TR-FRET assay.
Series [11] has as its target T1, Bromodomain testis-specific protein. The experiment in a line: Inhibition of recombinant BRDT BD2 (unknown origin) incubated for 120 mins by TR-FRET assay.
Series [12] addresses Poly [ADP-ribose] polymerase 1 (Homo sapiens, UniProt P09874). Description: Inhibition of PARP1 expression in human SW1990 cells at 1 uM after 4 days by Western blot analysis. It is filed as cell-based. To be noted: time 4.0 day.
The target in series [13] is Bromodomain-containing protein 4 (Homo sapiens, UniProt O60885). Description: Inhibition of BRD4 expression in human SW1990 cells at 1 uM after 4 days by Western blot analysis. It is filed as cell-based. To be noted: time 4.0 day.
Series [14] deals with Mus musculus. The experiment in a line: Toxicity in BALB/c mouse xenografted with human SW1990 cells assessed as lung damage at 45 mg/kg, ip administered for 28 consecutive days by H and E staining based […] microscopic analysis. It is filed as organism-based. Particulars: in vivo, 672 h, time 28 day.
For series [15], the system named is Mus musculus. Description: Toxicity in BALB/c mouse xenografted with human SW1990 cells assessed as liver damage at 45 mg/kg, ip administered for 28 consecutive days by H and E staining based […] microscopic analysis. It is filed as organism-based. To be noted: in vivo, 672 h, time 28 day.
Series [16] deals with SW1990. Description: Antitumor activity against human SW1990 cells xenografted in BALB/c mouse assessed as inhibition of Ki67 expression at 45 mg/kg, ip administered for 28 consecutive days by immunohistochemical analysis. In kind it is functional, organism-based. To be noted: time 28.0 day.
Series [17] has as its system Mus musculus. Description: In vivo inhibition of PARP1 expression in human […] cells xenografted in BALB/c mouse at 45 mg/kg, ip administered for 28 consecutive days by immunohistochemical analysis. It is filed as functional, organism-based. To be noted: time 28.0 day.
Series [18] has as its system Mus musculus. The experiment in a line: In vivo inhibition of BRD4 expression in human […] cells xenografted in BALB/c mouse at 45 mg/kg, ip administered for 28 consecutive days by Western blot analysis. Particulars: time 28.0 day. It is filed as functional, organism-based.
The test system of series [19] is SW1990. Description: Induction of apoptosis in human SW1990 cells assessed as late apoptotic cells at 1 uM after 4 days by Annexin V-FITC and propidium iodide staining based flow cytometry (reference value: 6.22%). In kind it is functional. To be noted: time 4 day.
Series [20] deals with SW1990. The experiment in a line: Induction of cell cycle arrest in human SW1990 cells assessed as accumulation of cells at S phase at 1 uM incubated for 4 days by propidium iodide staining based flow cytometry (reference value: 29.32%). Particulars: time 4 day. It is filed as functional.
Series [21] concerns Mus musculus. The experiment in a line: Effect on cell cycle progression in human SW1990 cells xenografted in BALB/c mouse assessed as reduction in CDK6 expression at 45 mg/kg, ip after 4 days by Western blot analysis. It is filed as functional, organism-based. Particulars: time 4.0 day.
For series [22], the system named is Mus musculus. Description: Effect on cell cycle progression in human SW1990 cells xenografted in BALB/c mouse assessed as reduction in CDK6 expression at 45 mg/kg, ip after 4 days by Q-PCR analysis. Particulars: time 4.0 day. It is filed as functional, organism-based.
The subject of series [23] is Mus musculus. The experiment in a line: Effect on cell cycle progression in human SW1990 cells xenografted in BALB/c mouse assessed as reduction in CCND1 expression at 45 mg/kg, ip after 4 days by Western blot analysis. To be noted: time 4.0 day. In kind it is functional, organism-based.
Series [24] has as its system Mus musculus. Description: Effect on cell cycle progression in human SW1990 cells xenografted in BALB/c mouse assessed as reduction in PLK1 expression at 45 mg/kg, ip after 4 days by Western blot analysis. Particulars: time 4.0 day. It is filed as functional, organism-based.
Series [25] concerns SW1990. Description: Inhibition of homologous recombinant repair in human SW1990 cells assessed as reduction in FOXM1 expression at 1 to 2 uM after 4 days by Western blot analysis. Particulars: dose 1-2 µM, time 4.0 day. In kind it is functional, cell-based.
Series [26] relates to SW1990. The experiment in a line: Inhibition of homologous recombinant repair in human SW1990 cells assessed as reduction in Rad51 expression at 1 to 2 uM after 4 days by Q-PCR analysis. It is filed as functional, cell-based. Particulars: dose 1-2 µM, time 4.0 day.
The test system of series [27] is SW1990. The experiment in a line: Inhibition of homologous recombinant repair in human SW1990 cells assessed as increase in […] expression at 1 to 2 uM after 4 days by Western blot analysis. In kind it is functional, cell-based. To be noted: dose 1-2 µM, time 4.0 day.
The subject of series [28] is SW1990. The experiment in a line: Induction of autophagy in human SW1990 cells assessed as reduction in p62 expression at 1 to 2 uM incubated for 4 days by immunofluorescence assay. To be noted: dose 1-2 µM, time 4.0 day. It is filed as functional, cell-based.
Series [29] deals with SW1990. The experiment in a line: Induction of autophagy in human SW1990 cells assessed as increase in pAMPKalpha expression at 1 to 2 uM incubated for 4 days by immunofluorescence assay. It is filed as functional, cell-based. Particulars: dose 1-2 µM, time 4.0 day.
The test system of series [30] is SW1990. The experiment in a line: Induction of autophagy in human SW1990 cells assessed as increase in pULK1 expression at 1 to 2 uM incubated for 4 days by immunofluorescence assay. Particulars: dose 1-2 µM, time 4.0 day. In kind it is functional, cell-based.
For series [31], the system named is SW1990. Description: Induction of autophagy in human SW1990 cells assessed as reduction in Bcl-2 expression at 1 to 2 uM incubated for 4 days by immunofluorescence assay. It is filed as functional, cell-based. Particulars: dose 1-2 µM, time 4.0 day.
In series [32] the test system is SW1990. The experiment in a line: Induction of autophagy in human SW1990 cells assessed as increase in Beclin1 expression at 1 to 2 uM incubated for 4 days by immunofluorescence assay. It is filed as functional, cell-based. Particulars: dose 1-2 µM, time 4.0 day.
The test system of series [33] is SW1990. The experiment in a line: Induction of autophagy in human SW1990 cells xenografted in BALB/c mouse assessed as decrease in p62 expression at 45 mg/kg, ip after 4 days by Q-PCR analysis. It is filed as functional, organism-based. To be noted: time 4.0 day.

The source made the active and inactive calls. The calls are words filed in the database; no cut-off is given here.

Chain of Poly [ADP-ribose] polymerase 1 (P09874 whole entry): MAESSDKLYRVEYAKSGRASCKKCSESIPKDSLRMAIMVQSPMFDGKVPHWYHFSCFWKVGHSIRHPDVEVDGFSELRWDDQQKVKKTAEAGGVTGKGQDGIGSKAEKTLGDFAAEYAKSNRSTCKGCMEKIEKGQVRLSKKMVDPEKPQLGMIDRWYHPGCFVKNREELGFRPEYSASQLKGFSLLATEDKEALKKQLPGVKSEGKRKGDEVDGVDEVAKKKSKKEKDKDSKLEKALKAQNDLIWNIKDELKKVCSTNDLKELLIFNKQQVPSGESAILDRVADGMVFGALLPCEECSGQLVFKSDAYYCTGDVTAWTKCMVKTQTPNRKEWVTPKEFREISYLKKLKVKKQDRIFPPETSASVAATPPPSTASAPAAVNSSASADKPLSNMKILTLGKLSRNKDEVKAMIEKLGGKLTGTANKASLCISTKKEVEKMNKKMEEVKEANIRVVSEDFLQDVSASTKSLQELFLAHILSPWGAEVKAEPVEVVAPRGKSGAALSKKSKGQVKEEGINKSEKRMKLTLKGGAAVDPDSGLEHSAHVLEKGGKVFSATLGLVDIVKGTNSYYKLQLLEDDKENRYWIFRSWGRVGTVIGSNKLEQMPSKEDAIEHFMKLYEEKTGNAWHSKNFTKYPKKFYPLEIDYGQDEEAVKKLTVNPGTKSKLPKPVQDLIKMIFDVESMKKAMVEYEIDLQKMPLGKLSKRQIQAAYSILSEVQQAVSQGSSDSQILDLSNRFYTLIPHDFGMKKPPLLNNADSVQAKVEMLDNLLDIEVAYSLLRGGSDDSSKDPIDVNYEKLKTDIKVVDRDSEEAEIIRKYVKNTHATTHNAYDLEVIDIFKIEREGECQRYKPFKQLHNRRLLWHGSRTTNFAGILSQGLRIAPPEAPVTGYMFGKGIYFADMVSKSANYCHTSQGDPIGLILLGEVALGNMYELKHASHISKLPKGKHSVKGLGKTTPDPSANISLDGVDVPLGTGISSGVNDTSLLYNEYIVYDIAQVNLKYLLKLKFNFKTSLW

As to `Cc1sc2c(c1C)C(c1ccc(Cl)cc1)=N[C@@H](CC(=O)OC(C)(C)C)c1nnc(C)n1-2`, the inhibition result in the series on SW1990 [1], with SW1990 [8] and with SW1990 [9] was “Active” in each case. Besides, the outcome with Mus musculus [2], with Mus musculus [3] and in the series with SW1990 [7] was Active. Also, the values for the Activity with SW1990 [4], in the series with SW1990 [5] and in the series on SW1990 [6] were 25.5%, 75.06% and 5.51%, respectively.
Regarding `CC[C@@H]1C(=O)N(C)c2cnc(N(C)c3ccc(-c4nc5c(C(N)=O)cccc5[nH]4)cc3OC)nc2N1C1CCCC1`, the IC50 (commonly the midpoint of a concentration-inhibition curve) was 1200 nM in series [10] and 1400 nM in series [11]. For the same compound, the inhibition entry (in series [12]; in series [13]; with SW1990 [25]; in the series on SW1990 [26]; with SW1990 [27]) was “Active” throughout. Further, the Activity result in the series on Mus musculus [14] is “Non-Toxic”; in the series on Mus musculus [15], “Non-Toxic”; with SW1990 [19], 28.4%; with SW1990 [20], 14.74%. The outcome with SW1990 [16], in the series on Mus musculus [17], with Mus musculus [18], in the series on Mus musculus [21], in the series on Mus musculus [22] and in the series with Mus musculus [23] was Active. The outcome in the series with Mus musculus [24], in the series with SW1990 [28], in the series on SW1990 [29], in the series on SW1990 [30], in the series on SW1990 [31] and with SW1990 [32] was Active. In addition, the result with SW1990 [33] was Active.

These data come from ChEMBL document CHEMBL5053549, “Discovery of Potent and Novel Dual PARP/BRD4 Inhibitors for Efficient Treatment of Pancreatic Cancer” (J Med Chem, 2021).
